Measured values from publication PMC11284788, “NN1213 – A Potent, Long-Acting, and Selective Analog of Human Amylin” (Journal of Medicinal Chemistry, 2024).
Numbered stars: 1 amine (or outer) side, 2 acyl side, 3 side chain; on linkers, the order of the positions; unused ones are H or OH. Bridge positions count the residues as written; N and C are the ends. Side chains are listed from the residue outwards. Peptide text beside a SMILES is read from it. * marks the point of attachment. C20 diacid = O=C(O)CCCCCCCCCCCCCCCCCCC(=O)*; γGlu = O=C(O)[C@H](CCC(=O)[*:2])N[*:1]

Experiment: ThT assay: fibril formation propensity and peptide recovery
Type: physicochemical
Conditions: for ThT, pH 4.0 lag-time / ThT, pH 7.5 lag-time: 250 μM peptide, 37 °C, 960 rpm, 45 h, lowest of four replicas, average of experiments; for ThT, pH 4.0 lag-time: 10 mM glycylglycine pH 4.0, 1 μM ThT; for recovery: residual dissolved peptide after 45 h of shaking, centrifugation and 0.22 μm filtration, HPLC, relative to amount before stress; for ThT, pH 7.5 lag-time: 10 mM HEPES pH 7.5, 1 μM ThT
Summary of the method: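 Fibrillation lag time is read visually from ThT fluorescence-time curves (444/485 nm, 20-min reads, 45 h, 37 °C, 960 rpm shaking) of 250 μM peptide with 1 μM ThT at pH 4.0 or 7.5. The most conservative of four replicates is used. Peptide recovery is post-stress soluble peptide (HPLC, 215/276 nm) as fraction of initial.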

| recovery (pH 4.0) | ThT, pH 7.5 lag-time | recovery (pH 7.5) | ThT, pH 4.0 lag-time | Compound | ThT, pH 4.0 lag-time (listed as 21) |
| --- | --- | --- | --- | --- | --- |
| – | 0.3 h | 19% | – | CC[C@H](C)[C@H](NC(=O)[C@@H]1CCCN1C(=O)CNC(=O)[C@H](Cc1ccccc1)NC(=O)[C@H](CC(N)=O)NC(=O)[C@@H]1CCCN1C(=O)[C@H](CO)NC(=O)[C@H](CO)NC(=O)[C@H](Cc1c[nH]cn1)NC(=O)[C@H](CCCNC(=N)N)NC(=O)[C@H](CC(C)C)NC(=O)[C@H](Cc1ccccc1)NC(=O)[C@H](CC(=O)O)NC(=O)[C@H](C)NC(=O)[C@H](CC(C)C)NC(=O)[C@H](CCCNC(=N)N)NC(=O)[C@H](CCC(N)=O)NC(=O)[C@@H](NC(=O)[C@H](C)NC(=O)[C@@H]1CSSC[C@H](NC(=O)[C@@H](N)CCCCNC(=O)CC[C@H](NC(=O)CC[C@H](NC(=O)CCCCCCCCCCCCCCCCCCC(=O)O)C(=O)O)C(=O)O)C(=O)N[C@@H](CC(N)=O)C(=O)N[C@@H]([C@@H](C)O)C(=O)N[C@@H](C)C(=O)N[C@@H]([C@@H](C)O)C(=O)N1)[C@@H](C)O)C(=O)N[C@@H](CC(C)C)C(=O)N[C@@H](CO)C(=O)N[C@@H](CO)C(=O)N[C@H](C(=O)N[C@@H](CC(N)=O)C(=O)N[C@H](C(=O)NCC(=O)N[C@@H](CO)C(=O)N[C@@H](CC(=O)O)C(=O)N[C@H](C(=O)N[C@@H](Cc1ccc(O)cc1)C(N)=O)[C@@H](C)O)C(C)C)[C@@H](C)O [Peptide 3] (H-K([γGlu-γGlu-C20 diacid])CNTATCATQRLADFLRHSSPNFGPILSSTNVGSDTY-NH2; disulfide 2-7) | – |
| – | 35 h | 100% | – | CC(C)C[C@H](NC(=O)[C@H](CCCNC(=N)N)NC(=O)[C@H](CCC(N)=O)NC(=O)[C@@H](NC(=O)[C@H](C)NC(=O)[C@@H]1CSSC[C@H](NC(=O)[C@@H](N)CCCCNC(=O)CC[C@H](NC(=O)CC[C@H](NC(=O)CCCCCCCCCCCCCCCCCCC(=O)O)C(=O)O)C(=O)O)C(=O)N[C@@H](CC(N)=O)C(=O)N[C@@H]([C@@H](C)O)C(=O)N[C@@H](C)C(=O)N[C@@H]([C@@H](C)O)C(=O)N1)[C@@H](C)O)C(=O)N[C@@H](C)C(=O)N[C@@H](CC(=O)O)C(=O)N[C@@H](Cc1ccccc1)C(=O)N[C@@H](CC(C)C)C(=O)N[C@@H](CCCNC(=N)N)C(=O)N[C@@H](Cc1c[nH]cn1)C(=O)N[C@@H](CO)C(=O)N[C@@H](CO)C(=O)N1CCC[C@H]1C(=O)N[C@@H](CC(N)=O)C(=O)N[C@@H](Cc1ccccc1)C(=O)NCC(=O)N[C@@H](C)C(=O)N1CCC[C@H]1C(=O)N[C@@H](CC(C)C)C(=O)N[C@@H](CO)C(=O)N[C@@H](CO)C(=O)N[C@H](C(=O)N[C@@H](CC(N)=O)C(=O)N[C@H](C(=O)NCC(=O)N[C@@H](CO)C(=O)N[C@@H](CC(=O)O)C(=O)N[C@H](C(=O)N[C@@H](Cc1ccc(O)cc1)C(N)=O)[C@@H](C)O)C(C)C)[C@@H](C)O [Peptide 5] (H-K([γGlu-γGlu-C20 diacid])CNTATCATQRLADFLRHSSPNFGAPLSSTNVGSDTY-NH2; disulfide 2-7) | – |
| – | >45 h | 100% | – | CC[C@H](C)[C@H](NC(=O)[C@H](C)NC(=O)CNC(=O)[C@H](Cc1ccccc1)NC(=O)[C@H](CC(N)=O)NC(=O)[C@@H]1CCCN1C(=O)[C@H](CO)NC(=O)[C@H](CO)NC(=O)[C@H](Cc1c[nH]cn1)NC(=O)[C@H](CCCNC(=N)N)NC(=O)[C@H](CC(C)C)NC(=O)[C@H](Cc1ccccc1)NC(=O)[C@H](CC(=O)O)NC(=O)[C@H](C)NC(=O)[C@H](CC(C)C)NC(=O)[C@H](CCCNC(=N)N)NC(=O)[C@H](CCC(N)=O)NC(=O)[C@@H](NC(=O)[C@H](C)NC(=O)[C@@H]1CSSC[C@H](NC(=O)[C@@H](N)CCCCNC(=O)CC[C@H](NC(=O)CC[C@H](NC(=O)CCCCCCCCCCCCCCCCCCC(=O)O)C(=O)O)C(=O)O)C(=O)N[C@@H](CC(N)=O)C(=O)N[C@@H]([C@@H](C)O)C(=O)N[C@@H](C)C(=O)N[C@@H]([C@@H](C)O)C(=O)N1)[C@@H](C)O)C(=O)N1CCC[C@H]1C(=O)N[C@@H](CO)C(=O)N[C@@H](CO)C(=O)N[C@H](C(=O)N[C@@H](CC(N)=O)C(=O)N[C@H](C(=O)NCC(=O)N[C@@H](CO)C(=O)N[C@@H](CC(=O)O)C(=O)N[C@H](C(=O)N[C@@H](Cc1ccc(O)cc1)C(N)=O)[C@@H](C)O)C(C)C)[C@@H](C)O [Peptide 6] (H-K([γGlu-γGlu-C20 diacid])CNTATCATQRLADFLRHSSPNFGAIPSSTNVGSDTY-NH2; disulfide 2-7) | – |
| – | >45 h | 100% | – | CC(C)C[C@H](NC(=O)[C@H](CCCNC(=N)N)NC(=O)[C@H](CCC(N)=O)NC(=O)[C@@H](NC(=O)[C@H](C)NC(=O)[C@@H]1CSSC[C@H](NC(=O)[C@@H](N)CCCCNC(=O)CC[C@H](NC(=O)CC[C@H](NC(=O)CCCCCCCCCCCCCCCCCCC(=O)O)C(=O)O)C(=O)O)C(=O)N[C@@H](CC(N)=O)C(=O)N[C@@H]([C@@H](C)O)C(=O)N[C@@H](C)C(=O)N[C@@H]([C@@H](C)O)C(=O)N1)[C@@H](C)O)C(=O)N[C@@H](C)C(=O)N[C@@H](CC(=O)O)C(=O)N[C@@H](Cc1ccccc1)C(=O)N[C@@H](CC(C)C)C(=O)N[C@@H](CCCNC(=N)N)C(=O)N[C@@H](Cc1c[nH]cn1)C(=O)N[C@@H](CO)C(=O)N[C@@H](CO)C(=O)N[C@@H](CC(N)=O)C(=O)N1CCC[C@H]1C(=O)N[C@@H](Cc1ccccc1)C(=O)NCC(=O)N[C@@H](C)C(=O)N1CCC[C@H]1C(=O)N[C@@H](CC(C)C)C(=O)N[C@@H](CO)C(=O)N[C@@H](CO)C(=O)N[C@H](C(=O)N[C@@H](CC(N)=O)C(=O)N[C@H](C(=O)NCC(=O)N[C@@H](CO)C(=O)N[C@@H](CC(=O)O)C(=O)N[C@H](C(=O)N[C@@H](Cc1ccc(O)cc1)C(N)=O)[C@@H](C)O)C(C)C)[C@@H](C)O [Peptide 7] (H-K([γGlu-γGlu-C20 diacid])CNTATCATQRLADFLRHSSNPFGAPLSSTNVGSDTY-NH2; disulfide 2-7) | – |
| 0% | – | – | 34 h | CC[C@H](C)[C@H](NC(=O)[C@H](C)NC(=O)CNC(=O)[C@H](Cc1ccccc1)NC(=O)[C@H](CC(N)=O)NC(=O)[C@@H]1CCCN1C(=O)[C@H](CO)NC(=O)[C@H](CO)NC(=O)[C@H](Cc1c[nH]cn1)NC(=O)[C@H](CCCNC(=N)N)NC(=O)[C@H](CC(C)C)NC(=O)[C@H](Cc1ccccc1)NC(=O)[C@H](CC(N)=O)NC(=O)[C@H](C)NC(=O)[C@H](CC(C)C)NC(=O)[C@H](CCCNC(=N)N)NC(=O)[C@H](CCC(N)=O)NC(=O)[C@@H](NC(=O)[C@H](C)NC(=O)[C@@H]1CSSC[C@H](NC(=O)[C@H](CCCCN)NC(=O)COCCOCCNC(=O)COCCOCCNC(=O)CC[C@H](NC(=O)CCCCCCCCCCCCCCCCCCC(=O)O)C(=O)O)C(=O)N[C@@H](CC(N)=O)C(=O)N[C@@H]([C@@H](C)O)C(=O)N[C@@H](C)C(=O)N[C@@H]([C@@H](C)O)C(=O)N1)[C@@H](C)O)C(=O)N1CCC[C@H]1C(=O)N[C@@H](CO)C(=O)N[C@@H](CO)C(=O)N[C@H](C(=O)N[C@@H](CC(N)=O)C(=O)N[C@H](C(=O)NCC(=O)N[C@@H](CO)C(=O)N[C@@H](CC(N)=O)C(=O)N[C@H](C(=O)N[C@@H](Cc1ccc(O)cc1)C(N)=O)[C@@H](C)O)C(C)C)[C@@H](C)O [Peptide 10] | – |
| 74% | – | – | 40 h | CC[C@H](C)[C@H](NC(=O)[C@H](C)NC(=O)CNC(=O)[C@H](Cc1ccccc1)NC(=O)[C@H](CC(N)=O)NC(=O)[C@@H]1CCCN1C(=O)[C@H](CO)NC(=O)[C@H](CO)NC(=O)[C@H](Cc1c[nH]cn1)NC(=O)[C@H](CCCNC(=N)N)NC(=O)[C@H](CC(C)C)NC(=O)[C@H](Cc1ccccc1)NC(=O)[C@H](CC(N)=O)NC(=O)[C@H](C)NC(=O)[C@H](CC(C)C)NC(=O)[C@H](CCCNC(=N)N)NC(=O)[C@H](CCC(N)=O)NC(=O)[C@@H](NC(=O)[C@H](C)NC(=O)[C@@H]1CSSC[C@H](NC(=O)[C@H](CCCCN)NC(=O)CC[C@H](NC(=O)CCCCCCCCCCCCCCCCCCC(=O)O)C(=O)O)C(=O)N[C@@H](CC(N)=O)C(=O)N[C@@H]([C@@H](C)O)C(=O)N[C@@H](C)C(=O)N[C@@H]([C@@H](C)O)C(=O)N1)[C@@H](C)O)C(=O)N1CCC[C@H]1C(=O)N[C@@H](CO)C(=O)N[C@@H](CO)C(=O)N[C@H](C(=O)N1CCC[C@H]1C(=O)N[C@H](C(=O)NCC(=O)N[C@@H](CO)C(=O)N[C@@H](CCC(=O)O)C(=O)N[C@H](C(=O)N[C@@H](Cc1ccc(O)cc1)C(N)=O)[C@@H](C)O)C(C)C)[C@@H](C)O [Peptide 11] ({C20 diacid-γGlu}-KCNTATCATQRLANFLRHSSPNFGAIPSSTPVGSETY-NH2; disulfide 2-7) | – |

| Compound | recovery (pH 4.0) | ThT, pH 7.5 lag-time | recovery (pH 7.5) | ThT, pH 4.0 lag-time | ThT, pH 4.0 lag-time (listed as 21) |
| --- | --- | --- | --- | --- | --- |
| CC[C@H](C)[C@H](NC(=O)[C@H](C)NC(=O)CNC(=O)[C@H](Cc1ccccc1)NC(=O)[C@H](CC(N)=O)NC(=O)[C@@H]1CCCN1C(=O)[C@H](CO)NC(=O)[C@H](CO)NC(=O)[C@H](Cc1c[nH]cn1)NC(=O)[C@H](CCCNC(=N)N)NC(=O)[C@H](CC(C)C)NC(=O)[C@H](Cc1ccccc1)NC(=O)[C@H](CC(=O)O)NC(=O)[C@H](C)NC(=O)[C@H](CC(C)C)NC(=O)[C@H](CCCNC(=N)N)NC(=O)[C@H](CCC(N)=O)NC(=O)[C@@H](NC(=O)[C@H](C)NC(=O)[C@@H]1CSSC[C@H](NC(=O)[C@@H](N)CCCCNC(=O)CC[C@H](NC(=O)CC[C@H](NC(=O)CCCCCCCCCCCCCCCCCCC(=O)O)C(=O)O)C(=O)O)C(=O)N[C@@H](CC(N)=O)C(=O)N[C@@H]([C@@H](C)O)C(=O)N[C@@H](C)C(=O)N[C@@H]([C@@H](C)O)C(=O)N1)[C@@H](C)O)C(=O)N1CCC[C@H]1C(=O)N[C@@H](CO)C(=O)N[C@@H](CO)C(=O)N[C@H](C(=O)N[C@@H](CC(N)=O)C(=O)N[C@H](C(=O)NCC(=O)N[C@@H](CO)C(=O)N[C@@H](CCCNC(=N)N)C(=O)N[C@H](C(=O)N[C@@H](Cc1ccc(O)cc1)C(N)=O)[C@@H](C)O)C(C)C)[C@@H](C)O [NN1213] | 96% | – | – | – | 42 h |
